# Reference: patent publication US20080058213A1, “Benzoxazole Compounds” (priority 2004, published 2008)
# Experiments:
# southern crabgrass = experiment: Foliage treatment test for upland field (Test Example 3): southern crabgrass; format: in vivo; conditions: foliage treatment at 1.0-2.0 leaf stage of southern crabgrass, examined after 3 weeks
# In short: (§1)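 Weeds were sown in compost-soil pots in a 25° C glasshouse. Wettable-powder formulations, diluted in water to the prescribed active-ingredient dose, were sprayed at 15 liters per are when southern crabgrass reached the 1.0-2.0 leaf stage. After 3 weeks, growth inhibition versus untreated control was scored 0 (under 20%) to 5 (100%).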
# [1] = system: common lambsquaters (Chenopodium album); experiment: Soil treatment test for upland field (Test Example 2): common lambsquaters; format: in vivo; conditions: soil treatment before germination, examined after 3 weeks
# In short: (§2)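 Upland soil in 1/3,000 are pots was seeded and covered; compounds formulated as wettable powders, diluted with water to the prescribed active-ingredient dose, were sprayed uniformly onto the soil surface pre-emergence at 15 liters per are. After 3 weeks in a glasshouse at 25° C average, growth inhibition versus untreated control was graded 0–5.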
# rice plant = experiment: Weed control test for paddy field (Test Example 1): phytotoxicity to rice plant; format: in vivo; conditions: paddy pots, treated at 1.0 leaf stage of barnyard grass, examined after 3 weeks
# In short: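 Rice transplanted at 2.0 leaf stage into flooded paddy soil pots (3 cm water) sown with weeds. Wettable powder applied dropwise at a prescribed active ingredient dose per are at 1.0 leaf stage of barnyard grass. Kept 3 weeks in glasshouse at 25 °C. Phytotoxicity scored 0 (normal) to 5 (killed) against untreated control.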
# [2] = system: flat sedge (Cyperus serotinus); experiment: Weed control test for paddy field (Test Example 1): flat sedge; format: in vivo; conditions: paddy pots, treated at 1.0 leaf stage of barnyard grass, examined after 3 weeks
# In short: (§3)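 Paddy-soil pots flooded to 3 cm, seeded with weeds and transplanted with 2.0-leaf rice. Wettable-powder formulations diluted in water and applied dropwise at a prescribed active-ingredient dose per are at barnyard grass 1.0-leaf stage. After 3 weeks in a 25 °C glasshouse, growth inhibition versus untreated control scored 0–5 (0: <20%; 5: 100%).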
# common lambsquaters = experiment: Foliage treatment test for upland field (Test Example 3): common lambsquaters; format: in vivo; conditions: foliage treatment at 1.0-2.0 leaf stage of southern crabgrass, examined after 3 weeks
# In short: as §1
# corn [3] = experiment: Soil treatment test for upland field (Test Example 2): phytotoxicity to corn; format: in vivo; conditions: soil treatment before germination, examined after 3 weeks; also: key: 0: normal growth; 1: little damaged; 2: low damaged; 3: medium damaged; 4: serious damaged; 5: complete killed
# [4] = system: velvetleaf (Abutilon theophrasti); experiment: Soil treatment test for upland field (Test Example 2): velvetleaf; format: in vivo; conditions: soil treatment before germination, examined after 3 weeks
# In short: as §2
# wheat [5] = experiment: Foliage treatment test for upland field (Test Example 3): phytotoxicity to wheat; format: in vivo; conditions: foliage treatment at 1.0-2.0 leaf stage of southern crabgrass, examined after 3 weeks; also: key: 0: normal growth; 1: little damaged; 2: low damaged; 3: medium damaged; 4: serious damaged; 5: complete killed
# In short: (§4)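 Crops sown in compost-mixed soil pots, kept in a glasshouse at 25° C. average. Effect scored after 3 weeks versus untreated control on a 0–5 scale (0 normal growth, 5 complete kill).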
# [6] = system: Monochoria (Monochoria vaginalis); experiment: Weed control test for paddy field (Test Example 1): Monochoria; format: in vivo; conditions: paddy pots, treated at 1.0 leaf stage of barnyard grass, examined after 3 weeks
# In short: as §3
# common purslane = experiment: Foliage treatment test for upland field (Test Example 3): common purslane; format: in vivo; conditions: foliage treatment at 1.0-2.0 leaf stage of southern crabgrass, examined after 3 weeks
# In short: as §1
# slender amaranth = experiment: Foliage treatment test for upland field (Test Example 3): slender amaranth; format: in vivo; conditions: foliage treatment at 1.0-2.0 leaf stage of southern crabgrass, examined after 3 weeks
# In short: as §1
# corn [7] = experiment: Foliage treatment test for upland field (Test Example 3): phytotoxicity to corn; format: in vivo; conditions: foliage treatment at 1.0-2.0 leaf stage of southern crabgrass, examined after 3 weeks; also: key: 0: normal growth; 1: little damaged; 2: low damaged; 3: medium damaged; 4: serious damaged; 5: complete killed
# In short: as §4
# [8] = system: southern crabgrass (Digitaria ciliaris); experiment: Soil treatment test for upland field (Test Example 2): southern crabgrass; format: in vivo; conditions: soil treatment before germination, examined after 3 weeks
# In short: as §2
# [9] = system: barnyard grass (Echinochloa crusgalli); experiment: Weed control test for paddy field (Test Example 1): barnyard grass; format: in vivo; conditions: paddy pots, treated at 1.0 leaf stage of barnyard grass, examined after 3 weeks
# In short: as §3
# velvetleaf = experiment: Foliage treatment test for upland field (Test Example 3): velvetleaf; format: in vivo; conditions: foliage treatment at 1.0-2.0 leaf stage of southern crabgrass, examined after 3 weeks
# In short: as §1
# soybean [10] = experiment: Foliage treatment test for upland field (Test Example 3): phytotoxicity to soybean; format: in vivo; conditions: foliage treatment at 1.0-2.0 leaf stage of southern crabgrass, examined after 3 weeks; also: key: 0: normal growth; 1: little damaged; 2: low damaged; 3: medium damaged; 4: serious damaged; 5: complete killed
# In short: as §4
# [11] = system: common purslane (Portulaca oleracea); experiment: Soil treatment test for upland field (Test Example 2): common purslane; format: in vivo; conditions: soil treatment before germination, examined after 3 weeks
# In short: as §2
# [12] = system: slender amaranth (Amaranthus viridis); experiment: Soil treatment test for upland field (Test Example 2): slender amaranth; format: in vivo; conditions: soil treatment before germination, examined after 3 weeks
# In short: as §2
# wheat [13] = experiment: Soil treatment test for upland field (Test Example 2): phytotoxicity to wheat; format: in vivo; conditions: soil treatment before germination, examined after 3 weeks
# soybean [14] = experiment: Soil treatment test for upland field (Test Example 2): phytotoxicity to soybean; format: in vivo; conditions: soil treatment before germination, examined after 3 weeks
# [15] = system: Japanese bulrush (Scirpus juncoides); experiment: Weed control test for paddy field (Test Example 1): Japanese bulrush; format: in vivo; conditions: paddy pots, treated at 1.0 leaf stage of barnyard grass, examined after 3 weeks
# In short: as §3
compound,measurement,setting,value
"FC(F)(F)COC/C(=C\c1cccc(C(F)(F)F)c1)c1nc2cc(C(F)(F)F)ccc2o1 [Compound 85, (E)-2-(5-trifluoromethylbenzoxazol-2-yl)-1-(3-trifluoromethylphenyl)-3-(2,2,2-trifluoroethoxy)propene]",Herbicidal Effect southern crabgrass,southern crabgrass; dose 2.5 g ai/a,5 (100%)
same,Herbicidal Effect southern crabgrass,southern crabgrass; dose 5 g ai/a,5 (100%)
same,Herbicidal Effect common lambsquaters,[1]; dose 2.5 g ai/a,5 (100%)
same,Herbicidal Effect common lambsquaters,[1]; dose 5 g ai/a,5 (100%)
same,Phytotoxicity Rice plant,rice plant; dose 2.5 g ai/a,0
same,Phytotoxicity Rice plant,rice plant; dose 5 g ai/a,0
same,Herbicidal Effect Flat sedge,[2]; dose 2.5 g ai/a,3 (60%-less than 80%)
same,Herbicidal Effect Flat sedge,[2]; dose 5 g ai/a,4 (80%-less than 100%)
same,Herbicidal Effect Common lambsquatters,common lambsquaters; dose 2.5 g ai/a,5 (100%)
same,Herbicidal Effect Common lambsquatters,common lambsquaters; dose 5 g ai/a,5 (100%)
same,Phytotoxicity corn,corn [3]; dose 2.5 g ai/a,0
same,Phytotoxicity corn,corn [3]; dose 5 g ai/a,0
same,Herbicidal Effect velvetleaf,[4]; dose 2.5 g ai/a,5 (100%)
same,Herbicidal Effect velvetleaf,[4]; dose 5 g ai/a,5 (100%)
same,Phytotoxicity wheat,wheat [5]; dose 2.5 g ai/a,1
same,Phytotoxicity wheat,wheat [5]; dose 5 g ai/a,1
same,Herbicidal Effect Monochoria vaginalis,[6]; dose 2.5 g ai/a,5 (100%)
same,Herbicidal Effect Monochoria vaginalis,[6]; dose 5 g ai/a,5 (100%)
same,Herbicidal Effect common purslane,common purslane; dose 2.5 g ai/a,5 (100%)
same,Herbicidal Effect common purslane,common purslane; dose 5 g ai/a,5 (100%)
same,Herbicidal Effect slender amaranth,slender amaranth; dose 2.5 g ai/a,5 (100%)
same,Herbicidal Effect slender amaranth,slender amaranth; dose 5 g ai/a,5 (100%)
same,Phytotoxicity corn,corn [7]; dose 2.5 g ai/a,1
same,Phytotoxicity corn,corn [7]; dose 5 g ai/a,1
same,Herbicidal Effect southern crabgrass,[8]; dose 2.5 g ai/a,5 (100%)
same,Herbicidal Effect southern crabgrass,[8]; dose 5 g ai/a,5 (100%)
same,melting point,,86 to 89 °C
same,Herbicidal Effect Barnyard grass,[9]; dose 2.5 g ai/a,4 (80%-less than 100%)
same,Herbicidal Effect Barnyard grass,[9]; dose 5 g ai/a,5 (100%)
same,Herbicidal Effect velvetleaf,velvetleaf; dose 2.5 g ai/a,5 (100%)
same,Herbicidal Effect velvetleaf,velvetleaf; dose 5 g ai/a,5 (100%)
same,Phytotoxicity soybean,soybean [10]; dose 2.5 g ai/a,2
same,Phytotoxicity soybean,soybean [10]; dose 5 g ai/a,2
same,Herbicidal Effect common purslane,[11]; dose 2.5 g ai/a,5 (100%)
same,Herbicidal Effect common purslane,[11]; dose 5 g ai/a,5 (100%)
same,Herbicidal Effect slender amaranth,[12]; dose 2.5 g ai/a,5 (100%)
same,Herbicidal Effect slender amaranth,[12]; dose 5 g ai/a,5 (100%)
same,Phytotoxicity wheat,wheat [13]; dose 2.5 g ai/a,0
same,Phytotoxicity wheat,wheat [13]; dose 5 g ai/a,0
same,Phytotoxicity soybean,soybean [14]; dose 2.5 g ai/a,0
same,Phytotoxicity soybean,soybean [14]; dose 5 g ai/a,0
same,Herbicidal Effect Japanese bulrush,[15]; dose 2.5 g ai/a,4 (80%-less than 100%)
same,Herbicidal Effect Japanese bulrush,[15]; dose 5 g ai/a,5 (100%)
